Where “and” joins values, the source holds several entries; their conditions need not be identical. Equal entries are not always repeated. Toxic doses and inconclusive results are not listed.
Test system: L1210 leukemia ip in BDF1 mice, survival T/C
Experiment: NCI In Vivo Anticancer Drug Screen. Data for tumor model L1210 Leukemia (intraperitoneal) in B6D2F1 (BDF1) mice
Conditions: higher = longer survival
In short: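 Value reflects the ratio of survival in compound-treated mice to survival in vehicle-treated controls, with both groups carrying the same transplanted tumor.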

[1] = endpoint: mean survival time, dose: 100.0 mg/kg/injection, schedule: Q01DX009 (ip), vehicle: Klucel (hydroxypropylcellulose) (HPC)
[2] = endpoint: mean survival time, dose: 200.0 mg/kg/injection, schedule: Q01DX009 (ip), vehicle: Klucel (hydroxypropylcellulose) (HPC)
[3] = endpoint: mean survival time, dose: 400.0 mg/kg/injection, schedule: Q01DX009 (ip), vehicle: Klucel (hydroxypropylcellulose) (HPC)
[4] = endpoint: mean survival time, dose: 100.0 mg/kg/injection, schedule: Q01DX009 (ip), vehicle: saline with Tween-80
[5] = endpoint: mean survival time, dose: 100.0 mg/kg/injection, schedule: Q04DX003 (ip), vehicle: saline
[6] = endpoint: mean survival time, dose: 200.0 mg/kg/injection, schedule: Q04DX003 (ip), vehicle: saline

## OCCOCCN1CCN(CCCN2c3ccccc3Sc3ccc(C(F)(F)F)cc32)CC1
endpoint: mean survival time, dose: 1.6 mg/kg/injection, schedule: Q01DX009 (ip), vehicle: saline
  T/C: 104 % of control
endpoint: mean survival time, dose: 6.25 mg/kg/injection, schedule: Q01DX009 (ip), vehicle: saline
  T/C: 117 % of control
endpoint: mean survival time, dose: 9.5 mg/kg/injection, schedule: Q01DX001 (ip), vehicle: saline
  T/C: 100 % of control
endpoint: mean survival time, dose: 12.5 mg/kg/injection, schedule: Q01DX009 (ip), vehicle: saline
  T/C: 93 % of control
endpoint: mean survival time, dose: 12.5 mg/kg/injection, schedule: Q04DX003 (ip), vehicle: saline
  T/C: 114 % of control and 124 % of control
endpoint: mean survival time, dose: 18.7 mg/kg/injection, schedule: Q04DX003 (ip), vehicle: saline
  T/C: 124 % of control
endpoint: mean survival time, dose: 18.75 mg/kg/injection, schedule: Q01DX009 (ip), vehicle: saline
  T/C: 95 % of control
endpoint: mean survival time, dose: 19.0 mg/kg/injection, schedule: Q01DX001 (ip), vehicle: saline
  T/C: 107 % of control
endpoint: mean survival time, dose: 25.0 mg/kg/injection, schedule: Q01DX009 (ip), vehicle: saline
  T/C: 103 % of control
endpoint: mean survival time, dose: 25.0 mg/kg/injection, schedule: Q04DX003 (ip), vehicle: saline
  T/C: 95 % of control and 118 % of control and 120 % of control
endpoint: mean survival time, dose: 33.0 mg/kg/injection, schedule: Q04DX003 (ip), vehicle: saline
  T/C: 122 % of control
endpoint: mean survival time, dose: 38.0 mg/kg/injection, schedule: Q01DX001 (ip), vehicle: saline
  T/C: 111 % of control
endpoint: mean survival time, dose: 120.0 mg/kg/injection, schedule: Q04DX003 (ip), vehicle: saline
  T/C: 150 % of control
endpoint: mean survival time, dose: 150.0 mg/kg/injection, schedule: Q04DX003 (ip), vehicle: saline
  T/C: 118 % of control
endpoint: mean survival time, dose: 1.5 micrograms/kg/injection, schedule: Q01DX009 (ip), vehicle: saline
  T/C: 95 % of control
endpoint: mean survival time, dose: 3.1 micrograms/kg/injection, schedule: Q01DX009 (ip), vehicle: saline
  T/C: 106 % of control
endpoint: mean survival time, dose: 6.2 micrograms/kg/injection, schedule: Q01DX009 (ip), vehicle: saline
  T/C: 95 % of control
endpoint: mean survival time, dose: 12.5 micrograms/kg/injection, schedule: Q01DX009 (ip), vehicle: saline
  T/C: 93 % of control
endpoint: mean survival time, dose: 25.0 micrograms/kg/injection, schedule: Q01DX009 (ip), vehicle: saline
  T/C: 103 % of control
endpoint: mean survival time, dose: 50.0 micrograms/kg/injection, schedule: Q01DX009 (ip), vehicle: saline
  T/C: 87 % of control
endpoint: mean survival time, dose: 100.0 micrograms/kg/injection, schedule: Q01DX009 (ip), vehicle: saline
  T/C: 103 % of control
endpoint: mean survival time, dose: 200.0 micrograms/kg/injection, schedule: Q01DX009 (ip), vehicle: saline
  T/C: 103 % of control

## CCCNC(=O)Nc1ccc(Nc2ccccc2)cc1
[1]
  T/C: 105 % of control
[2]
  T/C: 103 % of control
[3]
  T/C: 94 % of control

## O=C(NC(Cc1ccc(O)cc1)C(=O)O)SCc1ccccc1 (stereo not drawn)
endpoint: mean survival time, dose: 100.0 mg/kg/injection, schedule: Q01DX001 (ip), vehicle: other
  T/C: 100 % of control
endpoint: mean survival time, dose: 200.0 mg/kg/injection, schedule: Q01DX001 (ip), vehicle: other
  T/C: 102 % of control
endpoint: mean survival time, dose: 400.0 mg/kg/injection, schedule: Q01DX001 (ip), vehicle: other
  T/C: 102 % of control

## COc1ccc2nc3cc(Cl)ccc3c(NCCC[N+](C)(C)CCCCCCCCCC[N+](C)(C)CCCNc3c4ccc(Cl)cc4nc4ccc(OC)cc34)c2c1
endpoint: mean survival time, dose: 0.78 mg/kg/injection, schedule: Q01DX009 (ip), vehicle: saline with Tween-80
  T/C: 102 % of control
endpoint: mean survival time, dose: 1.56 mg/kg/injection, schedule: Q01DX009 (ip), vehicle: saline with Tween-80
  T/C: 94 % of control and 100 % of control
endpoint: mean survival time, dose: 3.13 mg/kg/injection, schedule: Q01DX009 (ip), vehicle: saline with Tween-80
  T/C: 100 % of control and 101 % of control
endpoint: mean survival time, dose: 6.25 mg/kg/injection, schedule: Q01DX009 (ip), vehicle: saline with Tween-80
  T/C: 106 % of control

## Nc1c(Cl)c(Cl)cc(Cl)c1Cl
[4]
  T/C: 102 % of control
endpoint: mean survival time, dose: 200.0 mg/kg/injection, schedule: Q01DX009 (ip), vehicle: saline with Tween-80
  T/C: 100 % of control
endpoint: mean survival time, dose: 400.0 mg/kg/injection, schedule: Q01DX009 (ip), vehicle: saline with Tween-80
  T/C: 95 % of control

## CC1(O)c2ccccc2-c2nc3ccccc3nc21 (stereo not drawn)
endpoint: mean survival time, dose: 50.0 mg/kg/injection, schedule: Q01DX009 (ip), vehicle: saline sonified
  T/C: 89 % of control
endpoint: mean survival time, dose: 100.0 mg/kg/injection, schedule: Q01DX009 (ip), vehicle: saline sonified
  T/C: 102 % of control
endpoint: mean survival time, dose: 100.0 mg/kg/injection, schedule: Q04DX003 (ip), vehicle: saline sonified
  T/C: 94 % of control
endpoint: mean survival time, dose: 200.0 mg/kg/injection, schedule: Q01DX009 (ip), vehicle: saline sonified
  T/C: 102 % of control
endpoint: mean survival time, dose: 200.0 mg/kg/injection, schedule: Q04DX003 (ip), vehicle: saline sonified
  T/C: 110 % of control
endpoint: mean survival time, dose: 400.0 mg/kg/injection, schedule: Q04DX003 (ip), vehicle: saline sonified
  T/C: 87 % of control

## Cc1ccc(OCCC(=O)O)cc1
endpoint: mean survival time, dose: 100.0 mg/kg/injection, schedule: Q04DX002 (ip), vehicle: saline
  T/C: 108 % of control
endpoint: mean survival time, dose: 200.0 mg/kg/injection, schedule: Q04DX002 (ip), vehicle: saline
  T/C: 101 % of control
endpoint: mean survival time, dose: 400.0 mg/kg/injection, schedule: Q04DX002 (ip), vehicle: saline
  T/C: 108 % of control

## CSC(N)=Nc1cccc(C)c1C
endpoint: mean survival time, dose: 50.0 mg/kg/injection, schedule: Q01DX009 (ip), vehicle: saline
  T/C: 100 % of control
endpoint: mean survival time, dose: 100.0 mg/kg/injection, schedule: Q01DX009 (ip), vehicle: saline
  T/C: 101 % of control
[5]
  T/C: 97 % of control
[6]
  T/C: 97 % of control

## CC[C@H]1CN2CCc3cc(OC)c(OC)cc3[C@@H]2C[C@@H]1C[C@H]1NCCc2c1[nH]c1ccc(O)cc21
endpoint: mean survival time, dose: 0.25 mg/kg/injection, schedule: Q01DX006 (ip), vehicle: saline
  T/C: 109 % of control
endpoint: mean survival time, dose: 0.5 mg/kg/injection, schedule: Q01DX006 (ip), vehicle: saline
  T/C: 117 % of control
endpoint: mean survival time, dose: 2.0 mg/kg/injection, schedule: Q01DX005 (ip), vehicle: saline
  T/C: 121 % of control
endpoint: mean survival time, dose: 4.0 mg/kg/injection, schedule: Q01DX005 (ip), vehicle: saline
  T/C: 108 % of control
endpoint: mean survival time, dose: 4.0 mg/kg/injection, schedule: Q04DX003 (ip), vehicle: saline
  T/C: 114 % of control
endpoint: mean survival time, dose: 125.0 micrograms/kg/injection, schedule: Q01DX009 (ip), vehicle: saline
  T/C: 108 % of control
endpoint: mean survival time, dose: 250.0 micrograms/kg/injection, schedule: Q01DX009 (ip), vehicle: saline
  T/C: 118 % of control
endpoint: mean survival time, dose: 500.0 micrograms/kg/injection, schedule: Q01DX009 (ip), vehicle: saline
  T/C: 120 % of control
endpoint: mean survival time, dose: 1000.0 micrograms/kg/injection, schedule: Q01DX009 (ip), vehicle: saline
  T/C: 109 % of control
endpoint: median survival time, dose: 1.0 mg/kg/injection, schedule: Q04DX003 (ip), vehicle: saline + alcohol
  T/C: 108 % of control
endpoint: median survival time, dose: 2.0 mg/kg/injection, schedule: Q04DX003 (ip), vehicle: saline + alcohol
  T/C: 118 % of control

## Cc1nc2ccccc2c(C(=O)O)c1C
[5]
  T/C: 102 % of control
[6]
  T/C: 96 % of control
endpoint: mean survival time, dose: 400.0 mg/kg/injection, schedule: Q04DX003 (ip), vehicle: saline
  T/C: 96 % of control

## O=C1c2cccc3c2C2(O)c4c1cccc4C(=O)c1cccc(c12)C3=O
[4]
  T/C: 101 % of control
endpoint: mean survival time, dose: 100.0 mg/kg/injection, schedule: Q04DX003 (ip), vehicle: saline with Tween-80
  T/C: 96 % of control
endpoint: mean survival time, dose: 132.0 mg/kg/injection, schedule: Q01DX009 (ip), vehicle: saline
  T/C: 101 % of control
endpoint: mean survival time, dose: 200.0 mg/kg/injection, schedule: Q01DX009 (ip), vehicle: saline
  T/C: 101 % of control
endpoint: mean survival time, dose: 200.0 mg/kg/injection, schedule: Q04DX003 (ip), vehicle: saline with Tween-80
  T/C: 100 % of control
endpoint: mean survival time, dose: 300.0 mg/kg/injection, schedule: Q01DX009 (ip), vehicle: saline
  T/C: 95 % of control
endpoint: mean survival time, dose: 400.0 mg/kg/injection, schedule: Q04DX003 (ip), vehicle: saline with Tween-80
  T/C: 102 % of control

## CCN1CC(C)(C)N(C(=O)c2ccccc2)CC1(C)C
endpoint: mean survival time, dose: 5.0 mg/kg/injection, schedule: Q01DX001 (ip), vehicle: carboxymethylcellulose (CMC)
  T/C: 98 % of control
endpoint: mean survival time, dose: 10.0 mg/kg/injection, schedule: Q01DX001 (ip), vehicle: carboxymethylcellulose (CMC)
  T/C: 106 % of control
endpoint: mean survival time, dose: 20.0 mg/kg/injection, schedule: Q01DX001 (ip), vehicle: carboxymethylcellulose (CMC)
  T/C: 95 % of control
endpoint: mean survival time, dose: 40.0 mg/kg/injection, schedule: Q01DX001 (ip), vehicle: carboxymethylcellulose (CMC)
  T/C: 109 % of control
endpoint: mean survival time, dose: 80.0 mg/kg/injection, schedule: Q01DX001 (ip), vehicle: carboxymethylcellulose (CMC)
  T/C: 98 % of control

## CC(C)=CCN(CC=C(C)C)CCC(C#N)c1cccc2ccccc12 (stereo not drawn)
endpoint: mean survival time, dose: 50.0 mg/kg/injection, schedule: Q01DX009 (ip), vehicle: Klucel (hydroxypropylcellulose) (HPC)
  T/C: 100 % of control
[1]
  T/C: 88 % of control
endpoint: mean survival time, dose: 100.0 mg/kg/injection, schedule: Q04DX003 (ip), vehicle: Klucel (hydroxypropylcellulose) (HPC)
  T/C: 109 % of control
[2]
  T/C: 88 % of control
endpoint: mean survival time, dose: 200.0 mg/kg/injection, schedule: Q04DX003 (ip), vehicle: Klucel (hydroxypropylcellulose) (HPC)
  T/C: 90 % of control
endpoint: mean survival time, dose: 400.0 mg/kg/injection, schedule: Q04DX003 (ip), vehicle: Klucel (hydroxypropylcellulose) (HPC)
  T/C: 93 % of control

## CCCCCCC(/C=N/NC(=O)CCCCCCCCC(=O)N/N=C/C(=C/c1ccccc1)CCCCCC)=C\c1ccccc1
[1]
  T/C: 93 % of control
[2]
  T/C: 98 % of control
[3]
  T/C: 91 % of control

— PubChem BioAssay AID248 (DTP/NCI, 2004)
